Entries after “also recorded” stand apart in the source; their conditions may differ. Structures can show the parent of a compound that is named as a salt.
How the values were obtained:
[1] = literature value (ref 34); cited from earlier work
[2] = Water solubility (qualitative statements); assay type: physicochemical; details: H2O
[3] = Isothermal titration calorimetry (ITC) with CB[8]; assay type: binding; details: 1000 μM in syringe into CB[8] 50 μM; aqueous NaCl (1 mM), 298 K
Method: All microcalorimetric titrations were performed in a thermostated TA Nano Isothermal Titration calorimeter at atmospheric pressure and 298 K. The samples were dissolved in an aqueous NaCl (1.0 mM) solution, in order to improve the solubility of CB[8], and the concentrations of sample were calibrated by UV-Vis absorption spectroscopy after filtered by a 0.45-filter. A solution of one reactant in a syringe was sequentially injected with stirring at 150 rpm into a solution of the other reactant in the sample cell with a constant volume of 185 μL. A representative titration curve is shown in FIG. 24, each titration of reactant into the sample cell gave an apparent reaction heat caused by the formation of the inclusion complex. The reaction heat decreases gradually until a balance was reached, whereupon only the dilution heat was measured. The net reaction heat was obtained by subtracting the dilution heat from the apparent reaction heat. The resulting data were analyzed with NanoAnalyze software using a 1:1 binding model to give the complex stability constant (Ka), standard molar reaction enthalpy (ΔH), and standard deviations. Generally, the first point of the titration curve was disregarded, as there is some liquid mixing near the tip of the injection needle before ITC run. […]
The value for K1 can be determined to be 5.8×10^7 M^−1 by analysis of the UV-Vis titration data. […]

[4] = 1H NMR of equimolar mixture with CB[8]; assay type: binding; details: D2O, 298 K
Description: The peaks in the spectrum were assigned on the basis of in-depth analyses of their 2D ^1H-^1H COSY and ROESY spectra. The chemical shifts of H-7, residing on the central phenylene groups, as well as H-5 and H-6, attached to the C═C double bonds, show (FIG. 2d) large upfield shifts (Δδ=−0.64, −0.43 and −1.12 for H-5, H-6, and H-7, respectively). While the protons on CB[8] display (FIG. 7) small upfield shifts (Δδ=−0.09, −0.11 and −0.13 for H-a, H-b, and H-c, respectively). […] Taken together, it can be concluded that, although OPVEBox^4+ and CBPQT^4+ have the same p-xylylene linkers, only OPVEBox^4+ can form ring-in-ring(s) complexes with CB[8] in aqueous solutions. […]
All solvents and reagents were obtained commercially and used without further purification unless noted otherwise. […] UV-Vis Absorption spectra were recorded in a conventional rectangular quartz cell (10×10×45 mm) on a UV-3600 Shimadzu spectrophotometer. Fluorescence spectra were measured in a rectangular quartz cell (10×10×45 mm) on a HORIBA FluoroMax-4 spectrometer, which was equipped with an integrating sphere for absolute fluorescence quantum yields determination and time-correlated single-photon counting (TCSPC) module for emission decays. […] Electrospray ionization-mass spectra (ESI-MS) were measured on Waters Synapt G2 mass spectrometer. […]

Question: For `CC12CC3CC(C)(C1)CC(N)(C3)C2` [memantine hydrochloride], which “binding affinity Ka for CB[8]” value [1] is on record?
Answer: 8.3e+12 M⁻¹

Question: Which water solubility [2] does the source give for `O=C1N2CN3C(=O)N4CN5C(=O)N6CN7C(=O)N8CN9C(=O)N%10CN%11C(=O)N%12CN%13C(=O)N%14CN%15C(=O)N%16CN1C1C2N2CN%17C(=O)N(CN%18C(=O)N(CN%19C(=O)N(CN%20C(=O)N(CN%21C(=O)N(CN%22C(=O)N(CN%23C(=O)N(CN1C2=O)C%16C%15%23)C%14C%13%22)C%12C%11%21)C%10C9%20)C8C7%19)C6C5%18)C4C3%17` (stereo not shown) [CB[8], cucurbit[8]uril] here?
Answer: poor water solubility; also recorded: low solubility

Question: With `c1cc2ccc1C[n+]1ccc(cc1)-c1cc[n+](cc1)Cc1ccc(cc1)C[n+]1ccc(cc1)-c1cc[n+](cc1)C2` [CBPQT^4+, cyclobis(paraquat-p-phenylene)] as the compound, how does the “enthalpy change upon addition into CB[8]” value [3] read?
Answer: no obvious enthalpy change

Question: What about the “binding with CB[8] by 1H NMR” value [4] of the same compound?
Answer: may bind very weakly to the p-xylylene linkers

Reference: patent US20230322781A1 (Northwestern University, priority 2020, published 2023)
